Values after ≈ are worked out from the molar mass of the structure shown.

As usually defined, the viability is a read-out of living cells in per cent, often relative to untreated cells.

The test system of data set [1] is Enterococcus faecium ATCC 35667. The arrangement: method as in doi:10.1002/ffj.3238. The following applies: data presented by the authors before; cited from earlier work.
The nature of another data set: MTT viability, IEC6. The following applies: rat, IEC-6 small intestine epithelial cells, 1000 µM (IC50 exceeded 1000 µM), read-out: viability ± standard deviation at 1000 µM. Format: cell-based. As to the method: (§1) Cell lines and in vitro culture conditions: The human promyelocytic leukaemia cell line HL-60 was obtained from the Centre of Molecular and Macromolecular Biology in Łódź, Poland and was cultured in RPMI 1640 medium with 20% heat-inactivated fetal bovine serum (FBS). To reduce spontaneous differentiation, the cells were never allowed to exceed a concentration of 1.0 × 10^6 cells/mL. The human keratinocyte cell line HaCaT was obtained from Cell Lines Service, Germany (CLS) and cultured in DMEM medium with 10% FBS. Human colorectal adenocarcinoma HT29 and normal epithelial IEC-6 cell lines (from ATCC) were cultured in DMEM medium with 10% FBS. The human skin melanoma cell line MEWO (from CLS) was cultured in DMEM:F12 supplemented with 2 mM L-glutamine and 10% FBS. Human fibroblasts from gingiva isolated from original tissue, HFIB-G, (from Provitro) were cultured in Quantum 333 (from Immunique). The media were supplemented with 100 U/mL penicillin and 100 µg/mL streptomycin; all media components were obtained from Life Technologies. The adherent cell lines used in the studies were seeded on microplates before they exceeded 80% of confluence. Cells were cultured at 37 °C in 5% CO2 air atmosphere/95% air atmosphere.
(§2) Cytotoxic activity: The cells (the density for HL-60 was 0.5 × 10^4 cells/100 µL, otherwise it was 1 × 10^4 cells/100 µL) were plated into each well of 96-well microtiter plates and, after their attachment to the plate surface, treated with 10 µL of the indicated concentrations of compounds for 24 h. Viability was determined by MTT assay following the treatment. MTT (3-[4.5-dimethylthiazol-2-yl]-2.5-diphenyltetrazolium bromide; Sigma, St. Louis, MO, USA) solution was added to each well and incubated for another 4 h. The resulting MTT-formazan product was dissolved by the addition of lysis buffer (20% SDS and 50% DMF). The amount of formazan was determined by measuring absorbance at 570 nm with a Synergy 2 microplate reader (BioTek, Winooski, VT, USA) operated by the Gen5 program. The experiments were conducted three times with five replications. The results are expressed as an optical density ratio of the treatment to control. All data are presented as means ± SD.

The next data set can be described thus: MTT viability, MEWO. Format: cell-based, human. The settings on record: human, MEWO malignant melanoma cells, 1000 µM (IC50 exceeded 1000 µM), read-out: viability ± standard deviation at 1000 µM. As to the method: as §1, §2
For data set [2], the system named is Acinetobacter baumannii ATCC 19606. The arrangement: method as in doi:10.1002/ffj.3238. The following applies: data presented by the authors before; cited from earlier work.
A short description of the next data set: MTT viability, HFIG. The data set is classed as cell-based, human. The settings on record: human, HFIG (HFIB-G) gingival fibroblasts, 1000 µM (IC50 exceeded 1000 µM), read-out: viability ± standard deviation at 1000 µM. As to the method: as §1, §2
A further data set can be described thus: MTT viability, HaCaT. Format: cell-based, human. The settings on record: human, HaCaT keratinocytes, 1000 µM (IC50 exceeded 1000 µM), read-out: viability ± standard deviation at 1000 µM. As to the method:
as §1, §2

The nature of a further data set: MTT viability, HT29. Format: cell-based, human. The following applies: human, HT29 colorectal adenocarcinoma cells, 1000 µM (IC50 exceeded 1000 µM), read-out: viability ± standard deviation at 1000 µM. As to the method: as §1, §2
In data set [3] the test system is Escherichia coli ATCC 25922. Also noted: method as in doi:10.1002/ffj.3238. The settings on record: data presented by the authors before; cited from earlier work.
Data set [4] concerns Promyelocytic Leukaemia HL-60. The experiment in a line: MTT viability, HL-60. The settings on record: Homo sapiens, HL-60, 24 h, HL-60, MTT, range 10–1000 µM, read-out: half maximal inhibitory concentration (IC50), interpolated. The data set is classed as cell-based, human. As to the method:
as §1, §2

The subject of data set [5] is Klebsiella pneumoniae ATCC 700603. Also noted: method as in doi:10.1002/ffj.3238. The settings on record: data presented by the authors before; cited from earlier work.
Data set [6] has as its system Enterococcus faecalis ATCC 51299. The arrangement: method as in doi:10.1002/ffj.3238. The settings on record: data presented by the authors before; cited from earlier work.
Data set [7] deals with Staphylococcus aureus ATCC 43300. Also noted: method as in doi:10.1002/ffj.3238. The following applies: data presented by the authors before; cited from earlier work.
Data set [8] has as its system Klebsiella pneumoniae ATCC 700603. The experiment in a line: Micro-dilution broth MIC, Klebsiella pneumoniae. Format: cell-based. The settings on record: ATCC700603, 24 h, 37 °C, read-out: Minimum Inhibitory Concentrations MIC. As to the method:
(§3) The standard strains, Gram-positive: Staphylococcus aureus ATCC […], Enterococcus faecalis Van B ATCC 51299 and Enterococcus faecium VA sensitive ATCC 35667, and Gram-negative: Escherichia coli ATCC 25922, Klebsiella pneumoniae ATCC 700603 and Acinetobacter baumannii ATCC 19606, came from a collection of the Environmental Biology Department, Medical University of Łódź. The standard strains were cultivated in Columbia Agar Medium and incubated at 37 °C for 24 h in aerobic conditions.
(§4) The antibacterial activity of the racemates and E/Z-mixtures was investigated using the micro‑dilution broth method. The compounds were diluted in ethanol. This stock solution was mixed with 100 µL of Mueller-Hinton broth to obtain concentrations from 10 µg/mL to 80 µg/mL. The mixtures were then transferred to 96-well microtiter plates. The microbial suspension was standardised to a cell density of 1.5 × 10^8 CFU, which was equal to an optical density of 0.5 on the Mc Farland scale by a bio-Merieux densitometer; one well was filled with broth only to act as a control for strain growth.

For data set [9], the system named is Acinetobacter baumannii ATCC 19606. Briefly: Micro-dilution broth MIC, Acinetobacter baumannii. The data set is classed as cell-based. The following applies: ATCC19606, 24 h, 37 °C, read-out: Minimum Inhibitory Concentrations MIC. As to the method:
as §3, §4

Data set [10] has as its system Staphylococcus aureus ATCC 43300. Briefly: Micro-dilution broth MIC, Staphylococcus aureus. The data set is classed as cell-based. The settings on record: ATCC43300, 24 h, 37 °C, read-out: Minimum Inhibitory Concentrations MIC. As to the method:
as §3, §4
Background: In broth dilution the organism is exposed to a series of concentrations in liquid medium.

Data set [11] relates to Enterococcus faecium ATCC 35667. Briefly: Micro-dilution broth MIC, Enterococcus faecium. The following applies: ATCC35667, 24 h, 37 °C, read-out: Minimum Inhibitory Concentrations MIC. Format: cell-based. The protocol: as §3, §4
The subject of a further data set is Malignant Melanoma MEWO. Briefly: MTT viability, MEWO. The following applies: Homo sapiens, 24 h, range 10–1000 µM, read-out: half maximal inhibitory concentration (IC50), interpolated. Format: cell-based, human. As to the method: as §1, §2
The subject of data set [12] is Escherichia coli ATCC 25922. Briefly: Micro-dilution broth MIC, Escherichia coli. The following applies: ATCC25922, 24 h, 37 °C, read-out: Minimum Inhibitory Concentrations MIC. Format: cell-based. As to the method:
as §3, §4

A further data set has as its system Fibroblasts HFIG. The experiment in a line: MTT viability, HFIG. The data set is classed as cell-based, human. The settings on record: Homo sapiens, Fibroblast, 24 h, range 10–1000 µM, read-out: half maximal inhibitory concentration (IC50), interpolated. The protocol:
as §1, §2

The test system of the next data set is Keratinocytes HaCaT. Briefly: MTT viability, HaCaT. The data set is classed as cell-based, human. The settings on record: Homo sapiens, 24 h, range 10–1000 µM, read-out: half maximal inhibitory concentration (IC50), interpolated. The protocol:
as §1, §2

Data set [13] relates to Enterococcus faecalis ATCC 51299. The experiment in a line: Micro-dilution broth MIC, Enterococcus faecalis. The settings on record: ATCC51299, 24 h, 37 °C, read-out: Minimum Inhibitory Concentrations MIC. The data set is classed as cell-based. As to the method:
as §3, §4

As to `C=CC(C)(O)CCC=CC(C)CCC=C(C)C` (stereo not drawn) [Compound 13], the “Minimum Inhibitory Concentrations MIC” value was 38 µg/mL in data set [1]; 22 µg/mL in data set [2]; 40 µg/mL in data set [3]; 20 µg/mL in [5]; 42 µg/mL in data set [6]; 46 µg/mL in data set [7]. The viability at 24 h, 1000 µM in the data set “MTT viability, IEC6” was 96%; in the data set “MTT viability, MEWO” it was 83%; in “MTT viability, HFIG”, 87%; in “MTT viability, HaCaT”, 87%; in “MTT viability, HT29” it was 99%. Moreover, the IC50 in data set [4] is 400 µM.

For `C=CC(C)(O)CCC=C(C)C(C)CCC=C(C)C` (stereo not drawn) [Compound 12], the “Minimum Inhibitory Concentrations MIC” value is recorded as 42 µg/mL in data set [1]; 26 µg/mL in [2]; 40 µg/mL in data set [3]; 28 µg/mL in [5]; 46 µg/mL in data set [6]; 48 µg/mL in data set [7]. The viability at 24 h, 1000 µM is 73% in “MTT viability, IEC6”; 97% in “MTT viability, MEWO”; 110% in “MTT viability, HFIG”; 101% in “MTT viability, HaCaT”; 97% in “MTT viability, HT29”. In [4], the IC50 stood at 500 µM.

As for `C=CC(C)(O)C(C)CC(C)CCC=C(C)C` (stereo not drawn) [Compound 17], the “Minimum Inhibitory Concentrations MIC” value is on record as 38 µg/mL in [1]; 16 µg/mL in [2]; 46 µg/mL in data set [3]; 18 µg/mL in data set [5]; 38 µg/mL in data set [6]; 48 µg/mL in [7]. For the same compound, the viability at 24 h, 1000 µM in “MTT viability, IEC6” is 98%; in “MTT viability, MEWO”, 112%; in “MTT viability, HFIG”, 87%; in “MTT viability, HaCaT”, 95%; in the data set “MTT viability, HT29”, 108%. In data set [4], the IC50 was found to be 750 µM.

Take `C=CC(C)(O)CCC=C(C)C(C)CCCC(C)C` (stereo not drawn) [Compound 14]: the “Minimum Inhibitory Concentrations MIC” value is reported as 36 µg/mL in data set [1]; 28 µg/mL in data set [2]; 38 µg/mL in data set [3]; 18 µg/mL in [5]; 38 µg/mL in [6]; 48 µg/mL in [7]. Besides, the viability at 24 h, 1000 µM in the data set “MTT viability, IEC6” came out at 65%; in “MTT viability, MEWO”, 99%; in the data set “MTT viability, HFIG”, 99%; in the data set “MTT viability, HaCaT” it was 106%; in the data set “MTT viability, HT29” it was 112%. Besides, the IC50 in data set [4] was 750 µM.

`C=CC(C)(O)CC(C)CCC=C(C)C` (stereo not drawn) [Compound 15]: the “Minimum Inhibitory Concentrations MIC” value in data set [1] is listed as 38 µg/mL; in data set [2], 16 µg/mL; in data set [3] it was 28 µg/mL; in [5] it was 16 µg/mL; in data set [6] it was 48 µg/mL; in data set [7], 46 µg/mL. Further, the viability at 24 h, 1000 µM came to 110% in “MTT viability, IEC6”; 104% in the data set “MTT viability, MEWO”; 96% in “MTT viability, HFIG”; 90% in “MTT viability, HaCaT”; 104% in “MTT viability, HT29”. Further, in data set [4], the IC50 worked out at 750 µM.

`CC(=O)CCC=C(C)CCC=C(C)C` [Geranyl acetone (1), geranyl acetone, reference compound]: the “Minimum Inhibitory Concentrations MIC” value in [1] is given as 28 µg/mL; in data set [2], 18 µg/mL; in [3], 26 µg/mL; in data set [5], 18 µg/mL; in [6], 36 µg/mL; in data set [7], 48 µg/mL. The viability at 24 h, 1000 µM in “MTT viability, IEC6” was determined as 79%; in “MTT viability, MEWO”, 93%; in the data set “MTT viability, HFIG”, 82%; in the data set “MTT viability, HaCaT”, 89%; in the data set “MTT viability, HT29”, 98%. In [4], the IC50 was around 295 µM.

`CC(C)=CCCC(C)C(C)=CCCC(C)=CCO` (stereo not drawn) [Compound 24, 3,7,8,12-Tetramethyltrideca-2,6,11-trien-1-ol]: the MIC stood at 44 µg/mL (≈ 176 µM) in data set [8]; 40 µg/mL (≈ 160 µM) in data set [9]; 22 µg/mL (≈ 87.9 µM) in data set [10]; 32 µg/mL (≈ 128 µM) in [11]; 52 µg/mL (≈ 208 µM) in data set [12]; 18 µg/mL (≈ 71.9 µM) in data set [13]. Also, the viability at 24 h, 1000 µM amounted to 85% in the data set “MTT viability, IEC6” and 78% in “MTT viability, HT29”. Further, the IC50 amounted to 512 µM with Malignant Melanoma MEWO, 390 µM in the data set with Fibroblasts HFIG, 686 µM with Keratinocytes HaCaT and 100 µM in data set [4].

(Values after publication PMC6272674, “Selected Compounds Structurally Related to Acyclic Sesquiterpenoids and Their Antibacterial and Cytotoxic Activity” (Molecules, 2015).)
